Laboratory results published in PubChem BioAssay (NCI).
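How tested: cells in 96-well plates exposed to compound for 48 hours at five concentrations. At the GI50, growth is halved. TGI is the concentration that stops growth completely.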

Assays:
Experiment in all cases: NCI anticancer screen, dose series, 48 h
[1] = system: MDA-MB-435
[2] = system: OVCAR-5 ovarian
[3] = system: SN12C renal
[4] = system: A498 renal
[5] = system: MDA-MB-231 breast
[6] = system: HS 578T breast
[7] = system: MOLT-4 leukemia
[8] = system: SW-620 colon
[9] = system: COLO 205 colon
[10] = system: HOP-62 NSCLC
[11] = system: MCF7 breast
[12] = system: NCI-H460 lung
[13] = system: SK-MEL-28 melanoma
[14] = system: HCT-116 colon
[15] = system: RPMI-8226 leukemia
[16] = system: UO-31 renal
[17] = system: SK-OV-3 ovarian
[18] = system: ACHN renal
[19] = system: SF-295 CNS
[20] = system: A549 NSCLC
[21] = system: M14 melanoma
[22] = system: CAKI-1 renal
[23] = system: HOP-92 NSCLC
[24] = system: SNB-75 CNS
[25] = system: HCT-15 colon
[26] = system: OVCAR-4 ovarian
[27] = system: NCI-H522 lung
[28] = system: IGROV1 ovarian
[29] = system: SNB-19 CNS
[30] = system: UACC-257 melanoma
[31] = system: OVCAR-8 ovarian
[32] = system: SF-268 CNS
[33] = system: SK-MEL-5 melanoma
[34] = system: KM12 colon
[35] = system: K-562 leukemia
[36] = system: PC-3 prostate
[37] = system: CCRF-CEM leukemia
[38] = system: DU-145 prostate
[39] = system: OVCAR-3 ovarian
[40] = system: NCI/ADR-RES ovarian
[41] = system: HT29 colon
[42] = system: UACC-62 melanoma
[43] = system: SK-MEL-2 melanoma
[44] = system: TK-10 renal
[45] = system: 786-0 renal
[46] = system: SF-539 CNS
[47] = system: NCI-H23 lung
[48] = system: HCC-2998 colon
[49] = system: LOX IMVI melanoma
[50] = system: MALME-3M melanoma
[51] = system: EKVX NSCLC
[52] = system: RXF 393 renal
[53] = system: U251 CNS
[54] = system: NCI-H226 lung
[55] = system: T-47D breast
[56] = system: BT-549 breast

SMILES: NC(=O)CC(N)C(=O)NC(Cc1ccccc1)C(=O)NC(Cc1ccccc1)NC(=O)C(Cc1c[nH]c2ccccc12)C(=O)O (stereo not drawn)
- TGI [1]: > 100000 nM
- TGI [2]: > 100000 nM
- TGI [3]: > 100000 nM
- TGI [4]: > 100000 nM
- TGI [5]: > 100000 nM
- TGI [6]: > 100000 nM
- TGI [7]: > 100000 nM
- TGI [8]: > 100000 nM
- TGI [9]: > 100000 nM
- TGI [10]: > 100000 nM
- TGI [11]: > 100000 nM
- TGI [12]: > 100000 nM
- TGI [13]: > 100000 nM
- TGI [14]: > 100000 nM
- TGI [15]: > 100000 nM
- TGI [16]: > 100000 nM
- TGI [17]: > 100000 nM
- TGI [18]: > 100000 nM
- TGI [19]: > 100000 nM
- TGI [20]: > 100000 nM
- TGI [21]: > 100000 nM
- TGI [22]: > 100000 nM
- TGI [23]: > 100000 nM
- TGI [24]: > 100000 nM
- TGI [25]: > 100000 nM
- TGI [26]: > 100000 nM
- TGI [27]: > 100000 nM
- TGI [28]: > 100000 nM
- TGI [29]: > 100000 nM
- TGI [30]: > 100000 nM
- TGI [31]: > 100000 nM
- TGI [32]: > 100000 nM
- TGI [33]: > 100000 nM
- TGI [34]: > 100000 nM
- TGI [35]: > 100000 nM
- TGI [36]: > 100000 nM
- TGI [37]: > 100000 nM
- TGI [38]: > 100000 nM
- TGI [39]: > 100000 nM
- TGI [40]: > 100000 nM
- TGI [41]: > 100000 nM
- TGI [42]: > 100000 nM
- TGI [43]: > 100000 nM
- TGI [44]: > 100000 nM
- TGI [45]: > 100000 nM
- TGI [46]: > 100000 nM
- TGI [47]: > 100000 nM
- TGI [48]: > 100000 nM
- TGI [49]: > 100000 nM
- TGI [50]: > 100000 nM
- TGI [51]: > 100000 nM
- TGI [52]: > 100000 nM
- TGI [53]: > 100000 nM
- TGI [54]: > 100000 nM
- TGI [55]: > 100000 nM

SMILES: CC(C)C(=O)c1c(C(F)(F)F)n([O-])c2cc(F)c(F)cc2[n+]1=O
- GI50 [1]: 724 nM
- TGI [1]: 2150 nM
- GI50 [2]: 1240 nM
- TGI [2]: 2580 nM
- GI50 [3]: 288 nM
- TGI [3]: 767 nM
- GI50 [4]: 130 nM
- TGI [4]: 1330 nM
- GI50 [5]: 176 nM
- TGI [5]: 770 nM
- GI50 [56]: 587 nM
- TGI [56]: 1900 nM
- GI50 [6]: 598 nM
- TGI [6]: 2640 nM
- GI50 [7]: 93.3 nM
- GI50 [8]: 130 nM
- TGI [8]: 277 nM
- GI50 [9]: 427 nM
- TGI [9]: 1660 nM
- GI50 [10]: 98.5 nM
- TGI [10]: 602 nM
- GI50 [12]: 811 nM
- TGI [12]: 2810 nM
- GI50 [13]: 550 nM
- TGI [13]: 3150 nM
- GI50 [15]: 66.6 nM
- TGI [15]: 12300 nM
- GI50 [16]: 568 nM
- TGI [16]: 1750 nM
- GI50 [17]: 1040 nM
- TGI [17]: 2850 nM
- GI50 [18]: 155 nM
- TGI [18]: 324 nM
- GI50 [19]: 1190 nM
- TGI [19]: 2560 nM
- GI50 [20]: 1380 nM
- TGI [20]: 4140 nM
- GI50 [21]: 70.8 nM
- TGI [21]: 387 nM
- GI50 [22]: 62.6 nM
- TGI [22]: 500 nM
- GI50 [23]: 191 nM
- TGI [23]: 972 nM
- GI50 [24]: 1080 nM
- TGI [24]: 2750 nM
- GI50 [25]: 147 nM
- TGI [25]: 309 nM
- GI50 [26]: 842 nM
- TGI [26]: 2890 nM
- GI50 [27]: 1960 nM
- TGI [27]: 6220 nM
- GI50 [28]: 161 nM
- TGI [28]: 53700 nM
- GI50 [29]: 1340 nM
- TGI [29]: 3080 nM
- GI50 [30]: 2280 nM
- TGI [30]: 6380 nM
- GI50 [31]: 262 nM
- TGI [31]: 850 nM
- GI50 [32]: 400 nM
- TGI [32]: 1050 nM
- GI50 [33]: 197 nM
- TGI [33]: 609 nM
- GI50 [34]: 1830 nM
- TGI [34]: 4690 nM
- GI50 [36]: 521 nM
- TGI [36]: 1130 nM
- GI50 [37]: 21.8 nM
- TGI [37]: > 100000 nM
- GI50 [38]: 592 nM
- TGI [38]: 1720 nM
- GI50 [39]: 667 nM
- TGI [39]: 2010 nM
- GI50 [40]: 200 nM
- TGI [40]: 545 nM
- GI50 [41]: 168 nM
- TGI [41]: 547 nM
- GI50 [42]: 666 nM
- TGI [42]: 1920 nM
- GI50 [43]: 234 nM
- TGI [43]: 27800 nM
- GI50 [44]: 976 nM
- TGI [44]: 2670 nM
- GI50 [45]: 444 nM
- TGI [45]: 970 nM
- GI50 [46]: 381 nM
- TGI [46]: 1000 nM
- GI50 [47]: 263 nM
- TGI [47]: 1160 nM
- GI50 [48]: 326 nM
- TGI [48]: 1370 nM
- GI50 [50]: 693 nM
- TGI [50]: 2210 nM
- GI50 [51]: 1530 nM
- TGI [51]: 3400 nM
- GI50 [52]: 456 nM
- TGI [52]: 1190 nM
- GI50 [53]: 200 nM
- TGI [53]: 430 nM
- GI50 [54]: 1260 nM
- TGI [54]: 2540 nM
- GI50 [55]: 1260 nM
- TGI [55]: 3960 nM
